# Experimental data as given in patent US9783532B2, “Molecules having certain pesticidal utilities, and intermediates, compositions, and processes related thereto” (Dow AgroSciences LLC, priority 2013, dated 2017).
# How the values were obtained:
# Assay type in all cases: in vivo
# [1] = system: Beet Armyworm (Spodoptera exigua) ("BAW"); assay: Bioassay on beet armyworm (BAW), 128-well diet tray assay; conditions: for mortality at 50 µg/cm2: 168 h, 50 μg/cm^2 on artificial diet, second instar BAW larvae, 25° C., five to seven days, average of eight wells, read-out: BAW % Control (or Mortality) rating
# Outline: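 Percent mortality, averaged across eight wells, was read after five to seven days at 25° C. under 14:10 light-dark. Each well held one to five second-instar larvae on artificial diet that had been treated with 50 μg/cm^2 compound in 90:10 acetone-water and dried.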
# [2] = system: Green Peach Aphid ("GPA") (Myzus persicae); assay: Bioassay on green peach aphid (GPA), foliar spray on cabbage seedlings; conditions: for mortality at 200 ppm: Myzus persicae, foliar, 72 h, 200 ppm spray on infested cabbage seedlings, three days, Abbott corrected % control, read-out: GPA % Control (or Mortality) rating
# Procedure: Certain molecules disclosed in this document were tested against GPA using procedures described in the following example. In the reporting of the results, the “GPA Rating Table” was used (See Table Section).
# Cabbage seedlings grown in 3-inch pots, with 2-3 small (3-5 cm) true leaves, were used as test substrate. The seedlings were infested with 20-50 GPA (wingless adult and nymph stages) one day prior to chemical application. Four pots with individual seedlings were used for each treatment. Test compounds (2 mg) were dissolved in 2 mL of acetone/methanol (1:1) solvent, forming stock solutions of 1000 ppm test compound. The stock solutions were diluted 5× with 0.025% Tween 20 in water to obtain the solution at 200 ppm test compound. A hand-held aspirator-type sprayer was used for spraying a solution to both sides of […] leaves until runoff. Reference plants (solvent check) were sprayed with the diluent only containing 20% by volume of acetone/methanol (1:1) solvent. Treated plants were held in a holding room for three days at approximately 25° C. and ambient relative humidity (RH) prior to grading. Evaluation was conducted by counting the number of live aphids per plant under a microscope. Percent Control was measured by using Abbott's correction formula (W. S. Abbott, “A Method of Computing the Effectiveness of an Insecticide” J. Econ. Entomol. 18 (1925), pp. 265-267) as follows. Corrected % Control=100*(X−Y)/X • where • X=No. of live aphids on solvent check plants and • Y=No. of live aphids on treated plants
# [3] = system: Cabbage Looper (Trichoplusia ni) ("CL"); assay: Bioassay on cabbage looper (CL), 128-well diet tray assay; conditions: for mortality at 50 µg/cm2: 168 h, 50 μg/cm^2 on artificial diet, second instar CL larvae, 25° C., five to seven days, average of eight wells, read-out: CL % Control (or Mortality) rating
# Outline: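 Percent mortality, averaged across eight replicate wells, was read after five to seven days at 25 °C under a 14:10 photoperiod. Each well held one to five second-instar T. ni on diet carrying a dried 50 μg/cm^2 dose applied in acetone-water 90:10.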
# [4] = system: Yellow Fever Mosquito "YFM" (Aedes aegypti); conditions: for YFM % Control (or Mortality) rating: about 1 day-old larvae, 96-well plate, room temperature, 3 days
# Outline: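 About 1 day-old Aedes aegypti larvae in liver-powder water added to wells holding compound diluted from 4000 ppm DMSO stock with 90:10 water:acetone, 6 replicate plates. Plates kept covered at room temperature for 3 days. Wells scored for mortality and reported as rating categories.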
# [5] = Table ABC (FB), activity rating class
SMILES,mortality at 50 µg/cm2 [1],mortality at 200 ppm [2],mortality at 50 µg/cm2 [3],YFM % Control (or Mortality) rating [4],"pest or weed control at 50 µg/cm2 ([1]; Table ABC (FB), activity rating class, read-out: BAW (Biological Results, Insect species))","GPA (Biological Results, Insect species) [2, 5]","pest or weed control at 50 µg/cm2 ([3]; Table ABC (FB), activity rating class, read-out: CL (Biological Results, Insect species))","YFM (Biological Results, Insect species) [4, 5]"
"CC(C)c1ccccc1NC(=S)NC(=O)NCCc1ccc(-c2ncn(-c3ccc(OC(F)(F)F)cc3)n2)cc1 [F2, N-[2-isopropylphenyl]-N-[2-(4-{1-[4-(trifluoromethoxy)phenyl]-1H-1,2,4-triazol-3-yl}phenyl)ethyl]dicarbonimidothioic diamide]",50 to 100%,0 to 80%,50 to 100%,A (80-100),,,,
"Cc1ccc(C(C)C)c(N2C(=O)CS/C2=N\C(=O)NCCc2ccc(-c3ncn(-c4ccc(OC(F)(F)F)cc4)n3)cc2)c1 [F5, (Z)-1-(3-(2-isopropropyl-5-methylphenyl)-4-oxothiazolidin-2-ylidene)-3-(4-(1-(4-(trifluoromethoxy)phenyl)-1H-1,2,4-triazol-3-yl)phenethyl)urea]",50 to 100%,80 to 100%,50 to 100%,A (80-100),,,,
"COc1ccc(C(C)C)c(N2C(=O)CS/C2=N\C(=O)NCCc2ccc(-c3ncn(-c4ccc(OC(F)(F)F)cc4)n3)cc2)c1 [F6, (Z)-1-(3-(2-isopropyl-5-methoxyphenyl)-4-oxothiazolidin-2-ylidene)-3-(4-(1-(4-(trifluoromethoxy)phenyl)-1H-1,2,4-triazol-3-yl)phenethyl)urea]",50 to 100%,0 to 80%,50 to 100%,A (80-100),,,,
"CC(Cc1ccc(-c2ncn(-c3ccc(OC(F)(F)F)cc3)n2)cc1)NC(=O)/N=C1\SCC(=O)N1c1ccccc1C(C)C (stereo not shown) [F7, (Z)-1-(3-(2-isopropylphenyl)-4-oxothiazolidin-2-ylidene)-3-(1-(4-(1-(4-(trifluoromethoxy)phenyl)-1H-1,2,4-triazol-3-yl)phenyl)propan-2-yl)urea]",50 to 100%,0 to 80%,50 to 100%,A (80-100),,,,
"Cc1ccc(C(C)C)c(N2C(=O)CS/C2=N\C(=O)NCCc2ccc(-c3ncn(-c4ccc(OC(F)(F)C(F)(F)F)cc4)n3)cc2)c1 [F9, (Z)-1-(3-(2-isopropyl-5-methylphenyl)-4-oxothiazolidin-2-ylidene)-3-(4-(1-(4-(perfluoroethoxy)phenyl)-1H-1,2,4-triazol-3-yl)phenethyl)urea]",50 to 100%,0%,50 to 100%,A (80-100),,,,
"Cc1ccc(C(C)C)c(N2C(=O)CS/C2=N\C(=O)NCC(C)c2ccc(-c3ncn(-c4ccc(OC(F)(F)F)cc4)n3)cc2)c1 (stereo not shown) [F10, (Z)-1-(3-(2-isopropyl-5-methylphenyl)-4-oxothiazolidin-2-ylidene)-3-(2-(4-(1-(4-(trifluoromethoxy)phenyl)-1H-1,2,4-triazol-3-yl)phenyl)propyl)urea]",50 to 100%,0 to 80%,50 to 100%,A (80-100),,,,
"CC(C)c1ccccc1NC(=S)NC(=O)NCc1ccc(-c2ncn(-c3ccc(OC(F)(F)F)cc3)n2)cc1 [F14, N-[2-(propan-2-yl)phenyl]-N′-(4-{1-[4-(trifluoromethoxy)phenyl]-1H-1,2,4-triazol-3-yl}benzyl)dicarbonimidothioic diamide]",50 to 100%,0%,50 to 100%,A (80-100),,,,
"Cc1ccc(C(C)C)c(NC(=S)NC(=O)NCCCc2ccc(-c3ncn(-c4ccc(OC(F)(F)F)cc4)n3)cc2)c1 [F21, 1-[(2-isopropyl-5-methyl-phenyl)carbamothioyl]-3-[3-[4-[1-[4-(trifluoromethoxy)phenyl]-1H-1,2,4-triazol-3-yl]phenyl]propyl]urea]",50 to 100%,0%,50 to 100%,A (80-100),,,,
"CC(C)c1ccccc1N1C(=O)CS/C1=N\C(=O)NC1CC1c1ccc(-c2ncn(-c3ccc(OC(F)(F)F)cc3)n2)cc1 (stereo not shown) [F29, (Z)-1-(3-(2-isopropylphenyl)-4-oxothiazolidin-2-ylidene)-3-(2-(4-(1-(4-(trifluoromethoxy)phenyl)-1H-1,2,4-triazol-3-yl)phenyl)cyclopropyl)urea]",50 to 100%,0%,50 to 100%,A (80-100),,,,
"CCCc1ccccc1N1C(=O)CS/C1=N\C(=O)NC1CC1c1ccc(-c2ncn(-c3ccc(OC(F)(F)F)cc3)n2)cc1 (stereo not shown) [F30, (Z)-1-(4-oxo-3-(2-propylphenyl)thiazolidin-2-ylidene)-3-(2-(4-(1-(4-(trifluoromethoxy)phenyl)-1H-1,2,4-triazol-3-yl)phenyl)cyclopropyl)urea]",50 to 100%,0%,50 to 100%,,,,,
"CCc1cccc(C)c1N1C(=O)CS/C1=N\C(=O)NC1CC1c1ccc(-c2ncn(-c3ccc(OC(F)(F)F)cc3)n2)cc1 (stereo not shown) [F31, (Z)-1-(3-(2-ethyl-6-methylphenyl)-4-oxothiazolidin-2-ylidene)-3-(2-(4-(1-(4-(trifluoromethoxy)phenyl)-1H-1,2,4-triazol-3-yl)phenyl)cyclopropyl)urea]",50 to 100%,0%,50 to 100%,,,,,
"Cc1cccc(C)c1N1C(=O)CS/C1=N\C(=O)NC1CC1c1ccc(-c2ncn(-c3ccc(OC(F)(F)F)cc3)n2)cc1 (stereo not shown) [F32, (Z)-1-(3-(2,6-dimethylphenyl)-4-oxothiazolidin-2-ylidene)-3-(2-(4-(1-(4-(trifluoromethoxy)phenyl)-1H-1,2,4-triazol-3-yl)phenyl)cyclopropyl)urea]",50 to 100%,0%,50 to 100%,,,,,
"CCc1ccc(C)cc1N1C(=O)CS/C1=N\C(=O)NC1CC1c1ccc(-c2ncn(-c3ccc(OC(F)(F)F)cc3)n2)cc1 (stereo not shown) [F33, (Z)-1-(3-(2-ethyl-5-methylphenyl)-4-oxothiazolidin-2-ylidene)-3-(2-(4-(1-(4-(trifluoromethoxy)phenyl)-1H-1,2,4-triazol-3-yl)phenyl)cyclopropyl)urea]",50 to 100%,0%,50 to 100%,,,,,
"Cc1ccc(C(C)C)c(N2CCS/C2=N\C(=O)NC2CC2c2ccc(-c3ncn(-c4ccc(OC(F)(F)F)cc4)n3)cc2)c1 (stereo not shown) [F34, (Z)-1-(3-(2-isopropyl-5-methylphenyl)thiazolidin-2-ylidene)-3-(2-(4-(1-(4-(trifluoromethoxy)-phenyl)-1H-1,2,4-triazol-3-yl)phenyl)cyclopropyl)urea]",50 to 100%,0%,50 to 100%,,,,,
"CCC(Cc1ccc(-c2ncn(-c3ccc(OC(F)(F)F)cc3)n2)cc1)NC(=O)/N=C1\SCC(=O)N1c1cc(C)ccc1C(C)C (stereo not shown) [FB43, (Z)-1-(3-(2-isopropyl-5-methylphenyl)-4-oxothiazolidin-2-ylidene)-3-(1-(4-(1-(4-(trifluoromethoxy)phenyl)-1H-1,2,4-triazol-3-yl)phenyl)butan-2-yl)urea]",,,,,50 to 100%,B (More than 0-Less than 80),50 to 100%,A (80-100)
